Measured values from the kinase profiling compilation of Christmann-Franck et al. (2016).

Key:
Test in all cases: Caliper, Mobility shift assay off-chip
[1] = biological target: ABL2 (human) (UniProt P42684)
[2] = biological target: ALK (human) (UniProt Q9UM73)
[3] = biological target: ALK EML4 (human) (UniProt Q9HC35+Q9UM73)
[4] = biological target: ALK NPM1 (human) (UniProt P06748+Q9UM73)
[5] = biological target: BRSK1 (human) (UniProt Q8TDC3)
[6] = biological target: BTK (human) (UniProt Q06187)
[7] = biological target: CAMK2B (human) (UniProt Q13554)
[8] = biological target: CAMK2G (human) (UniProt Q13555)
[9] = biological target: CHEK2 (human) (UniProt O96017)
[10] = biological target: CIT (human) (UniProt O14578)
[11] = biological target: DYRK2 (human) (UniProt Q92630)
[12] = biological target: EPHB4 (human) (UniProt P54760)
[13] = biological target: FES (human) (UniProt P07332)
[14] = biological target: FLT1 (human) (UniProt P17948)
[15] = biological target: JAK1 JH1 JH2 (human) (UniProt P23458)
[16] = biological target: LATS2 (human) (UniProt Q9NRM7)
[17] = biological target: MAP4K2 (human) (UniProt Q12851)
[18] = biological target: MAP4K4 (human) (UniProt O95819)
[19] = biological target: MAPK10 (human) (UniProt P53779)
[20] = biological target: MARK4 (human) (UniProt Q96L34)
[21] = biological target: MYLK2 (human) (UniProt Q9H1R3)
[22] = biological target: PAK1 (human) (UniProt Q13153)
[23] = biological target: PAK2 (human) (UniProt Q13177)
[24] = biological target: PAK3 (human) (UniProt O75914)
[25] = biological target: PDGFRA (human) (UniProt P16234)
[26] = biological target: PDK2 (human) (UniProt Q15119)
[27] = biological target: PHKG1 (human) (UniProt Q16816)
[28] = biological target: PLK3 (human) (UniProt Q9H4B4)
[29] = biological target: PRKAA2 (human) (UniProt P54646)
[30] = biological target: ROS1 (human) (UniProt P08922)
[31] = biological target: RPS6KB2 (human) (UniProt Q9UBS0)
[32] = biological target: SRPK2 (human) (UniProt P78362)
[33] = biological target: TAOK2 (human) (UniProt Q9UL54)
[34] = biological target: WNK1 (human) (UniProt Q9H4A3)

Sequence of CAMK2G (human) (Q13555 whole entry, looked up): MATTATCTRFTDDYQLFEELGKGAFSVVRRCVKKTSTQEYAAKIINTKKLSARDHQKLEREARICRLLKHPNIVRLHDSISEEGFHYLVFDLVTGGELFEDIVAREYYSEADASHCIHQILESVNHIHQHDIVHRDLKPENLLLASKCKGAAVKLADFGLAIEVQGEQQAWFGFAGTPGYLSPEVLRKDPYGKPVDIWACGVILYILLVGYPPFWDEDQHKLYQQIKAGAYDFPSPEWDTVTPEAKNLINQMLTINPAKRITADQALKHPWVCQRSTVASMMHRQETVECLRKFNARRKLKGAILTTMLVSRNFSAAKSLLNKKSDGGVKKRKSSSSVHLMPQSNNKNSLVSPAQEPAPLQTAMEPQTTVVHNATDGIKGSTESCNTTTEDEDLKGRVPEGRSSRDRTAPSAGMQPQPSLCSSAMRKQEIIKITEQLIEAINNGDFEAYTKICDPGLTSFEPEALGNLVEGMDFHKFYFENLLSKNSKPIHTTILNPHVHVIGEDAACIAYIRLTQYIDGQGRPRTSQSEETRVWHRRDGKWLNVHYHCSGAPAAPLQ
Sequence of PAK2 (human) (Q13177 whole entry, looked up): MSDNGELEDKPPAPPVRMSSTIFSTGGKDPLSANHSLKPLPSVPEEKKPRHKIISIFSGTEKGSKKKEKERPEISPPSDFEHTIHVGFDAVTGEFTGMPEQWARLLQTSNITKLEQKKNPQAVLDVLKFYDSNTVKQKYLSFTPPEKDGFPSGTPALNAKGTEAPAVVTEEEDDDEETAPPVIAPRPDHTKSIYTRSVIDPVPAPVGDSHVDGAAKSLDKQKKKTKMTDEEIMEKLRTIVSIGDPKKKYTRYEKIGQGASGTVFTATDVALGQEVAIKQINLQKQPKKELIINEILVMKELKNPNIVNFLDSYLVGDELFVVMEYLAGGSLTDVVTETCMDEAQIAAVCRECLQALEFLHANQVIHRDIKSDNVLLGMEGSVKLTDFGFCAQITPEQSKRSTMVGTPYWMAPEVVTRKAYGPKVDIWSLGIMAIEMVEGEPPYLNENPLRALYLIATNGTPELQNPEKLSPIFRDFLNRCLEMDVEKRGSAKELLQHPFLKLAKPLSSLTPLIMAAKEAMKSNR
Sequence of MYLK2 (human) (Q9H1R3 whole entry, looked up): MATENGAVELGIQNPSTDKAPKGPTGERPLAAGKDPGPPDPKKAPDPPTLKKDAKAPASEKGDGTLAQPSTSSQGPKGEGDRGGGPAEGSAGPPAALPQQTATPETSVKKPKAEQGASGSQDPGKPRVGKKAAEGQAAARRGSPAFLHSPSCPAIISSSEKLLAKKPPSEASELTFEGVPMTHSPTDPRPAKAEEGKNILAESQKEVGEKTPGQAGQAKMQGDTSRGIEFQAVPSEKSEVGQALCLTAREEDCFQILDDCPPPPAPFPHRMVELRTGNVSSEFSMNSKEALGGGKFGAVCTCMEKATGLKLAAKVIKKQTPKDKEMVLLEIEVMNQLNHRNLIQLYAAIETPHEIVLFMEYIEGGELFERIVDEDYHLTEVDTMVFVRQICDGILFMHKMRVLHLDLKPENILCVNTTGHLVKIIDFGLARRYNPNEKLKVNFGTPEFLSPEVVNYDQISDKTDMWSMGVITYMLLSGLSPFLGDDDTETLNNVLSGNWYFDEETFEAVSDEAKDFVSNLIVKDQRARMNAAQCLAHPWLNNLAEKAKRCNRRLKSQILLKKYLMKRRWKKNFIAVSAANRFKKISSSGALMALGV
Sequence of MARK4 (human) (Q96L34 whole entry, looked up): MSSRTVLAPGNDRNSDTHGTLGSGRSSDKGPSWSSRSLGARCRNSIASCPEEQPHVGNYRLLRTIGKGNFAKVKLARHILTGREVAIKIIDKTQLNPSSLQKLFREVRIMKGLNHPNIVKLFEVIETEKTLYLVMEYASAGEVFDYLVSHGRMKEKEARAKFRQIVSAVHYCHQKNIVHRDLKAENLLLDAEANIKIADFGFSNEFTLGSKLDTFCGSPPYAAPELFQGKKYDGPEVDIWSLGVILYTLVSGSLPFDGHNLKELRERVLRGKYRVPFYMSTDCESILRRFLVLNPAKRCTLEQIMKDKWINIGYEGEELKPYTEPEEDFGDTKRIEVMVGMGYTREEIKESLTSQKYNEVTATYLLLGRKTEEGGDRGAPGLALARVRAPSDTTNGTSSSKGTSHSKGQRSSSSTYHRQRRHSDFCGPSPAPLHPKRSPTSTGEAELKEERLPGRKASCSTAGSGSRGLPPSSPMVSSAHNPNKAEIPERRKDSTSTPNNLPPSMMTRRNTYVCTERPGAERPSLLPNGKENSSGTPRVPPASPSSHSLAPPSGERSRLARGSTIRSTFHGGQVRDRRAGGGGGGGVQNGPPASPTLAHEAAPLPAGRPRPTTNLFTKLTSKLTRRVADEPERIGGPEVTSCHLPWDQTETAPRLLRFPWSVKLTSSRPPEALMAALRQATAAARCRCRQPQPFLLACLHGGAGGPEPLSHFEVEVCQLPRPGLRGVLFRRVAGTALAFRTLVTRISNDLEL
Sequence of ALK EML4 (human) (Q9HC35 whole entry, looked up): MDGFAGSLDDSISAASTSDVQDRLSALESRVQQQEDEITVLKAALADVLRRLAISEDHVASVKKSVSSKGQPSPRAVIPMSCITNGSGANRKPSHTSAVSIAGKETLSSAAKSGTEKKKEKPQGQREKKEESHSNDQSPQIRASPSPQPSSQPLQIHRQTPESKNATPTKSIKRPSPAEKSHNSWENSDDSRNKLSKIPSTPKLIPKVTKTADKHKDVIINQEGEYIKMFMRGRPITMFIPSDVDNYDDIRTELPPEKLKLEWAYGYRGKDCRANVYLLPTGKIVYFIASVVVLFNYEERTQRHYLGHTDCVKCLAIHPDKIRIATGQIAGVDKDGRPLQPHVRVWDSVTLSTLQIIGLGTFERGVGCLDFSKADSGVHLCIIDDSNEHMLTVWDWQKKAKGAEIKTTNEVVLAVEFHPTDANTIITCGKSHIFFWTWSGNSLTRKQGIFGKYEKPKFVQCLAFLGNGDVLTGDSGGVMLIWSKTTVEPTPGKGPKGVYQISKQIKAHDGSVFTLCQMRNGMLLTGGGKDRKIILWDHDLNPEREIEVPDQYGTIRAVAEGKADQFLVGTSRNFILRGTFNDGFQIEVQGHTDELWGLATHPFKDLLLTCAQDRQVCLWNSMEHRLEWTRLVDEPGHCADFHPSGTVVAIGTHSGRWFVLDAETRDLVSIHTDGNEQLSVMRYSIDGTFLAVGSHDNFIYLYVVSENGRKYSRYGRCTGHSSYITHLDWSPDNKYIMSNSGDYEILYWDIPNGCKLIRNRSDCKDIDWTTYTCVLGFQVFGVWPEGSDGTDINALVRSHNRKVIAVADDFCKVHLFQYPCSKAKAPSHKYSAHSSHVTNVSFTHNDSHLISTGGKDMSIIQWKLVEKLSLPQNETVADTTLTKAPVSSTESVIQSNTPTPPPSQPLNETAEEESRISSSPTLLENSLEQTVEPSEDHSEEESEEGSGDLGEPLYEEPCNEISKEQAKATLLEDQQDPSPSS
Sequence of ALK EML4 (human) (Q9UM73 whole entry, looked up): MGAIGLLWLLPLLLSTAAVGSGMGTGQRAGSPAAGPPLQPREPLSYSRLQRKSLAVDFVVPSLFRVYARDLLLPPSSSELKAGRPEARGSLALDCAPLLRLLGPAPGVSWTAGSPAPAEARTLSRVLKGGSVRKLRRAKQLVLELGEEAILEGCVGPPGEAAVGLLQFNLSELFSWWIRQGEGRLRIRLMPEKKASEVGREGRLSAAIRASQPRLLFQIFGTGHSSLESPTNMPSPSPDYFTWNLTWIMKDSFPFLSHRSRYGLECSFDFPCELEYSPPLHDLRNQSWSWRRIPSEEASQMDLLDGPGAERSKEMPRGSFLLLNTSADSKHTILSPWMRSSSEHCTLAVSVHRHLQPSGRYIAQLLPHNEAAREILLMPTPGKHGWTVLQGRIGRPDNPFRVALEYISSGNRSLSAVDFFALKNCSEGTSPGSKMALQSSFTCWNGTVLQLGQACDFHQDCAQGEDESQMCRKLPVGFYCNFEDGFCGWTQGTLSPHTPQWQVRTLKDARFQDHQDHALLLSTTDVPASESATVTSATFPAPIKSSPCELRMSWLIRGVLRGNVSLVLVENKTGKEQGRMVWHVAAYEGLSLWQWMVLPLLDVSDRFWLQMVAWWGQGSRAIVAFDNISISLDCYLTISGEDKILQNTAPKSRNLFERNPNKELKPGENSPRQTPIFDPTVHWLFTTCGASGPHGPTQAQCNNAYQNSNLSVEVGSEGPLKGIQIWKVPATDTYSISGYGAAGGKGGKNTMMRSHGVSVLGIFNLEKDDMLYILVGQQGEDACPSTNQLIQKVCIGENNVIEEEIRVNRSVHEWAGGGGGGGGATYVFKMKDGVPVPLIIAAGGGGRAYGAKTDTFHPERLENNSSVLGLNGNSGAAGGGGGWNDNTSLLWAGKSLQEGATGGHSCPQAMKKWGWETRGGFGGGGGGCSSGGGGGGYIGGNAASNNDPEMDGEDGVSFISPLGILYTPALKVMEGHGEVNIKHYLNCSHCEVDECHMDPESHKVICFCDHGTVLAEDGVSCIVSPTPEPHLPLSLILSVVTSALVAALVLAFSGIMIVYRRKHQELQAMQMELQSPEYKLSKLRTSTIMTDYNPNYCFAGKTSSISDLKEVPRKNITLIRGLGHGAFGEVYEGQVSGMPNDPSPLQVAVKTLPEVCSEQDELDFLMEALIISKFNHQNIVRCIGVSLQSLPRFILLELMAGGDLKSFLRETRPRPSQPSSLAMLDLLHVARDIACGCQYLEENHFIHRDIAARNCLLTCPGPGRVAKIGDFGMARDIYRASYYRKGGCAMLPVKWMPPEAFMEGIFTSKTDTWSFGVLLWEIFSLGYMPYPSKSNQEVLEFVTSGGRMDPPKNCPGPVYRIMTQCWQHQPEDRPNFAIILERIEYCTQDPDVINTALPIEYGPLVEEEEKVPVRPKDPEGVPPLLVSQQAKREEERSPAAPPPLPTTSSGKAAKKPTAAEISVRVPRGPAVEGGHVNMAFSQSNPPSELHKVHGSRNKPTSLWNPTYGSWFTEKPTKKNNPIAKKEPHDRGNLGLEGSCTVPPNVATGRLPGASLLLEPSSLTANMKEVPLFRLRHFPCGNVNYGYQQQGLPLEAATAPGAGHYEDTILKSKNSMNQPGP
Sequence of ALK (human) (Q9UM73 whole entry, looked up): as above

`COc1cc2c(Oc3ccc4[nH]c(C)cc4c3F)ncnc2cc1OCCCN1CCCC1` showed an inhibition ([1]; compound 0.02 µM) of 5.6%, an inhibition ([1]; compound 0.2 µM) of 34.5% and an inhibition ([2]; compound 0.02 µM) of 5.8%. It also gave an inhibition ([2]; compound 0.2 µM) of 10.6%, an inhibition ([3]; compound 0.02 µM) of -1.4% and an inhibition ([3]; compound 0.2 µM) of 0.1%. For the same molecule, the inhibition ([4]; compound 0.02 µM) was 3.6%, the inhibition ([4]; compound 0.2 µM) was 5.1% and the inhibition ([5]; compound 0.02 µM) was 2.2%. For the same molecule, the inhibition ([5]; compound 0.2 µM) was 7.5%, the inhibition ([6]; compound 0.02 µM) was 3.4% and the inhibition ([6]; compound 0.2 µM) was 10.1%. The inhibition ([7]; compound 0.02 µM) was -4.3%, the inhibition ([7]; compound 0.2 µM) was -6% and the inhibition ([8]; compound 0.02 µM) was 0.2%. For the same molecule, the inhibition ([8]; compound 0.2 µM) was 1.5%, the inhibition ([9]; compound 0.02 µM) was -1.2% and the inhibition ([9]; compound 0.2 µM) was 3.6%. The inhibition ([10]; compound 0.02 µM) was -3%, the inhibition ([10]; compound 0.2 µM) was -1.6% and the inhibition ([11]; compound 0.02 µM) was 13.4%. For the same molecule, the inhibition ([11]; compound 0.2 µM) was -5.6%, the inhibition ([12]; compound 0.02 µM) was -0.5% and the inhibition ([12]; compound 0.2 µM) was 23.3%. For the same molecule, the inhibition ([13]; compound 0.02 µM) was 6.9%, the inhibition ([13]; compound 0.2 µM) was 7.8% and the inhibition ([14]; compound 0.02 µM) was 91.6%. It also gave an inhibition ([14]; compound 0.2 µM) of 102%, an inhibition ([15]; compound 0.02 µM) of -2.9% and an inhibition ([15]; compound 0.2 µM) of -3.6%. For the same molecule, the inhibition ([16]; compound 0.02 µM) was -7.6%, the inhibition ([16]; compound 0.2 µM) was -0.9% and the inhibition ([17]; compound 0.02 µM) was 2.6%. The inhibition ([17]; compound 0.2 µM) was 18.4%, the inhibition ([18]; compound 0.02 µM) was -0.2% and the inhibition ([18]; compound 0.2 µM) was 15.5%. For the same molecule, the inhibition ([19]; compound 0.02 µM) was -2.9%, the inhibition ([19]; compound 0.2 µM) was -6.5% and the inhibition ([20]; compound 0.02 µM) was -7.1%. It also gave an inhibition ([20]; compound 0.2 µM) of -7.3%, an inhibition ([21]; compound 0.02 µM) of -2.3% and an inhibition ([21]; compound 0.2 µM) of -2.4%. For the same molecule, the inhibition ([22]; compound 0.02 µM) was -2.7%, the inhibition ([22]; compound 0.2 µM) was -3% and the inhibition ([23]; compound 0.02 µM) was -4.1%. It also gave an inhibition ([23]; compound 0.2 µM) of 3.5%, an inhibition ([24]; compound 0.02 µM) of -1.7% and an inhibition ([24]; compound 0.2 µM) of 3.3%. For the same molecule, the inhibition ([25]; compound 0.02 µM) was 39.2%, the inhibition ([25]; compound 0.2 µM) was 86.9% and the inhibition ([26]; compound 0.02 µM) was -2.7%. The inhibition ([26]; compound 0.2 µM) was -4.9%, the inhibition ([27]; compound 0.02 µM) was -5.1% and the inhibition ([27]; compound 0.2 µM) was -3.5%. The inhibition ([28]; compound 0.02 µM) was 6%, the inhibition ([28]; compound 0.2 µM) was 7.9% and the inhibition ([29]; compound 0.02 µM) was 5.1%. For the same molecule, the inhibition ([29]; compound 0.2 µM) was 6%, the inhibition ([30]; compound 0.02 µM) was 0.6% and the inhibition ([30]; compound 0.2 µM) was 0.4%. The inhibition ([31]; compound 0.02 µM) was 1%, the inhibition ([31]; compound 0.2 µM) was 0.6% and the inhibition ([32]; compound 0.02 µM) was -7.9%. It also gave an inhibition ([32]; compound 0.2 µM) of -5.3%, an inhibition ([33]; compound 0.02 µM) of 3.1% and an inhibition ([33]; compound 0.2 µM) of 3.3%. For the same molecule, the inhibition ([34]; compound 0.02 µM) was 4.8% and the inhibition ([34]; compound 0.2 µM) was 2.6%.
